In ChEMBL document CHEMBL1121852, “Nonsteroidal antiinflammatory agents. 3. Synthesis of the positional isomers of 4'-chloro-5-methoxy-3-biphenylylacetic acid and their antiinflammatory and analgesic activities” (J Med Chem, 1981):

Tests used:
[1] = Tested for acute toxicity after administration of compound at 50 mg/kg intraperitoneally in mice; assay type: organism-based; set-up: dose 50 mg/kg, route intraperitoneal; settings: mouse, in vivo, ip
[2] = tested on: Mus musculus; assay: Tested for inhibitory activity after administration of compound at 50 mg/kg perorally using AcOH writhing method; assay type: functional; settings: route oral
[3] = tested on: Rattus norvegicus; assay: Percent inhibition of carrageenan induced rat paw edema 3 hr after a peroral administration of 50 mg/kg; assay type: functional; settings: route oral
[4] = tested on: Rattus norvegicus; assay: Percent inhibition of carrageenan induced rat paw edema 3 hr after a peroral administration of 20 mg/kg; assay type: functional; settings: route oral
[5] = tested on: Rattus norvegicus; assay: Percent inhibition of carrageenan induced rat paw edema 3 hr after a peroral administration of 10 mg/kg; assay type: functional; settings: route oral
[6] = tested on: Rattus norvegicus; assay: Percent inhibition of carrageenan induced rat paw edema 3 hr after a peroral administration of 0.5 mg/kg; assay type: functional; settings: route oral
[7] = tested on: Rattus norvegicus; assay: Percent inhibition after administration at 2 mg/kg perorally using carrageenan induced rat paw edema method; assay type: functional; settings: route oral

Row | Compound | LD50 [1] [mg/kg] | ED50 [2] [mg/kg] | inhibition in vivo at 50 mg/kg [3] [%] | inhibition in vivo at 20 mg/kg [4] [%] | inhibition in vivo at 10 mg/kg [5] [%] | inhibition in vivo at 0.5 mg/kg [6] [%] | inhibition in vivo at 2 mg/kg [7] [%]
1 | COc1ccc(CC(=O)O)cc1-c1ccc(Cl)cc1 | 673 | 26.7 | 49 | 19 |  |  | 
2 | COc1cccc(CC(=O)O)c1-c1ccc(Cl)cc1 | 566 | > 50 | 0 |  |  |  | 
3 | COc1cccc(-c2ccc(Cl)cc2)c1CC(=O)O | 476 | > 50 | 0 |  |  |  | 
4 | COc1ccc(CC(=O)O)c(-c2ccc(Cl)cc2)c1 | 566 | > 50 | 0 |  |  |  | 
5 | COc1ccc(-c2ccc(Cl)cc2)cc1CC(=O)O | 566 | > 50 | 0 |  |  |  | 
6 | COc1c(CC(=O)O)cccc1-c1ccc(Cl)cc1 | 283 | > 50 | 16 |  |  |  | 
7 | COc1cc(CC(=O)O)cc(-c2ccc(Cl)cc2)c1 | 570 | 16.1 | 53 | 65 | 39 |  | 
8 | COc1cc(-c2ccc(Cl)cc2)ccc1CC(=O)O | 400 | > 50 | 27 |  |  |  | 
9 | COc1ccc(-c2ccc(Cl)cc2)c(CC(=O)O)c1 | 566 | > 50 | 13 |  |  |  | 
10 | COc1cc(CC(=O)O)ccc1-c1ccc(Cl)cc1 | 238 | 35.1 | 38 | 27 |  |  | 
11 | COc1ccc2c(c1)c(CC(=O)O)c(C)n2C(=O)c1ccc(Cl)cc1 [INDOMETHACIN] |  |  | 45 |  |  | 19 | 25
